Reference: patent US6703421B1, “Methods of using phenylmethylbenzoquinone and hydroquinone compounds for treatment of myocarditis, dilated cardiomyopathy and heart failure” (Daiichi Suntory Pharma Co., Ltd., priority 1999, dated 2004)

System: NF-κB
Assay: NF-κB luciferase reporter assay in A549/NF-κBLuc cells
Assay type: cell-based, human
Details: Homo sapiens; A549/NF-κBLuc, IL-1β (1 ng/ml) for 4 hours, luciferase activity; read-out: IC50 (μM) IL-1 stimulation
Method: Using lipofectamine (Lifetech Oriental K. K., Tokyo) according to the conventional method, human lung cancer cell line A549 cells (ATCC catalog no. CCL185), which are known to express hiNOS by cytokine stimulation, were co-transfected with pNFκB-Luc, which are plasmid controlled by a NF-κB binding consensus sequence, and pSV2neo (Clontech, U.S.A.), and then A549/NF-κBLuc, the cell that has stably introduced pNFκB-Luc, was selected by adding G418 sulfate (1 mg/ml, Lifetech Oriental K. K.) to the culture medium.
The luciferase activity was measured using the Luciferase Assay System (Promega, U.S.A.).

| SMILES | IC50 [µM] |
| --- | --- |
| CC1=C(C)C(=O)C(Cc2cccc(CCC(=O)N3CCCCC3)c2)=C(C)C1=O [Prod. Ex. 50, N-[3-[3-(3,5,6-Trimethyl-1,4-benzoquinon-2-ylmethyl)phenyl]propionyl]piperidine] | 16 |
| Cc1csc2ncnc(NC3Cc4ccccc4C3)c12 [Prod. Ex. 190, 4-(2-Indanylamino)-5-methylthieno[2,3-d]pyrimidine] | 0.71 |
| COC1=C(OC)C(=O)C(Cc2ccccc2CCC(=O)N2CCOCC2)=C(C)C1=O [Prod. Ex. 71, N-[3-[2-(5,6-Dimethoxy-3-methyl-1,4-benzoquinon-2-ylmethyl)phenyl]propionyl]morpholine] | 56 |
| COC1=C(OC)C(=O)C(Cc2ccc(CCC(=O)N3CCOCC3)cc2)=C(C)C1=O [Prod. Ex. 3, N-[3-[4-(5,6-Dimethoxy-3-methyl-1,4-benzoquinon-2-ylmethyl)phenyl]propionyl]morpholine] | 29 |
| COC1=C(OC)C(=O)C(Cc2ccccc2CCC(=O)NC(C)C)=C(C)C1=O [Prod. Ex. 73, N-[3-[2-(5,6-Dimethoxy-3-methyl-1,4-benzoquinon-2-ylmethyl)phenyl]propionyl]isopropylamine] | 34 |
| COC1=C(OC)C(=O)C(Cc2cccc(C(=O)N3CCCCC3)c2)=C(C)C1=O [Prod. Ex. 43, N-[3-(5,6-Dimethoxy-3-methyl-1,4-benzoquinon-2-ylmethyl)benzoyl]piperidine] | 21 |
| CCOC(=O)N1CCN(C(=O)CCc2ccc(CC3=C(C)C(=O)C(OC)=C(OC)C3=O)cc2)CC1 [Prod. Ex. 147] | 47 |
| COC1=C(OC)C(=O)C(Cc2ccc(CCC(=O)N3CCc4cc(OC)c(OC)cc4C3)cc2)=C(C)C1=O [Prod. Ex. 167] | 15 |
| CC(C)c1csc2ncnc(NC3Cc4ccccc4C3)c12 [Prod. Ex. 211, 4-(2-Indanylamino)-5-isopropylthieno[2,3-d]pyrimidine] | 0.064 |
| COC1=C(OC)C(=O)C(Cc2ccc(CCC(=O)NC(C)C)cc2)=C(C)C1=O [Prod. Ex. 9, N-[3-[4-(5,6-Dimethoxy-3-methyl-1,4-benzoquinon-2-ylmethyl)phenyl]propionyl]isopropylamine] | 3 |
| COC1=C(OC)C(=O)C(Cc2ccc(CCC(=O)Nc3ccc(OC)c(OC)c3)cc2)=C(C)C1=O [Prod. Ex. 103] | 10 |
| COC1=C(OC)C(=O)C(Cc2ccc(CCC(=O)N3CCCCC3C)cc2)=C(C)C1=O (centres unmarked) [Prod. Ex. 83] | 1 |
| COC1=C(OC)C(=O)C(Cc2ccc(CCC(=O)NCCC(C)C)cc2)=C(C)C1=O [Prod. Ex. 173] | 36 |
| COC1=C(OC)C(=O)C(Cc2cccc(CCCC(=O)N3CCSCC3)c2)=C(C)C1=O [Prod. Ex. 64, N-[4-[3-(5,6-Dimethoxy-3-methyl-1,4-benzoquinon-2-ylmethyl)phenyl]butanoyl]thiomorpholine] | 5 |
| COC1=C(OC)C(=O)C(Cc2ccc(CCC(=O)Nc3ccc(O)cc3)cc2)=C(C)C1=O [Prod. Ex. 189] | 28 |
| COC1=C(OC)C(=O)C(Cc2ccc(CCC(=O)NC3CCCCC3)cc2)=C(C)C1=O [Prod. Ex. 175] | 19 |
| COC1=C(OC)C(=O)C(Cc2ccc(CCC(=O)Nc3ccc(CC#N)cc3)cc2)=C(C)C1=O [Prod. Ex. 111] | 14 |
| COC1=C(OC)C(=O)C(Cc2ccc(CC(=O)N3CCOCC3)cc2)=C(C)C1=O [Prod. Ex. 53, N-[4-(5,6-Dimethoxy-3-methyl-1,4-benzoquinon-2-ylmethyl)phenylacetyl]morpholine] | 8 |
| COC1=C(OC)C(=O)C(Cc2ccc(CCC(=O)N3CCc4ccccc4C3)cc2)=C(C)C1=O [Prod. Ex. 169] | 43 |
| Cc1csc2ncnc(NC3Cc4ccc(C(=O)NCc5ccccc5)cc4C3)c12 (centres unmarked) [Prod. Ex. 220, N-Benzyl-2-(5-methylthieno[2,3-d]pyrimidine-4-yl)amino-5-indan Carboxamide] | 0.072 |
| CCOC(=O)C1CCCCN1C(=O)CCc1ccc(CC2=C(C)C(=O)C(OC)=C(OC)C2=O)cc1 (centres unmarked) [Prod. Ex. 105] | 16 |
| COC1=C(OC)C(=O)C(Cc2cccc(C(=O)N3CCSCC3)c2)=C(C)C1=O [Prod. Ex. 45, N-[3-(5,6-Dimethoxy-3-methyl-1,4-benzoquinon-2-ylmethyl)benzoyl]thiomorpholine] | 17 |
| COC1=C(OC)C(=O)C(Cc2cccc(CCC(=O)N3CCSCC3)c2)=C(C)C1=O [Prod. Ex. 33, N-[3-[3-(5,6-Dimethoxy-3-methyl-1,4-benzoquinon-2-ylmethyl)phenyl]propionyl]thiomorpholine] | 28 |

| SMILES | IC50 [µM] |
| --- | --- |
| COC1=C(OC)C(=O)C(Cc2cccc(CCCC(=O)N3CCCCC3)c2)=C(C)C1=O [Prod. Ex. 63, N-[4-[3-(5,6-Dimethoxy-3-methyl-1,4-benzoquinon-2-ylmethyl)phenyl]butanoyl]piperidine] | 2 |
| COC1=C(OC)C(=O)C(Cc2cccc(CCC(=O)NC(C)C)c2)=C(C)C1=O [Prod. Ex. 35, N-[3-[3-(5,6-Dimethoxy-3-methyl-1,4-benzoquinon-2-ylmethyl)phenyl]propionyl]isopropylamine] | 8 |
| COC1=C(OC)C(=O)C(Cc2cccc(CC(=O)N3CCSCC3)c2)=C(C)C1=O [Prod. Ex. 59, N-[3-(5,6-Dimethoxy-3-methyl-1,4-benzoquinon-2-ylmethyl)phenylacetyl]thiomorpholine] | 12 |
| COC1=C(OC)C(=O)C(Cc2cccc(CCCC(=O)N3CCOCC3)c2)=C(C)C1=O [Prod. Ex. 65, N-[4-[3-(5,6-Dimethoxy-3-methyl-1,4-benzoquinon-2-ylmethyl)phenyl]butanoyl]morpholine] | 12 |
| CC1=C(C)C(=O)C(Cc2ccc(CCC(=O)N3CCOCC3)cc2)=C(C)C1=O [Prod. Ex. 48, N-[3-[4-(3,5,6-Trimethyl-1,4-benzoquinon-2-ylmethyl)phenyl]propionyl]morpholine] | 18 |
| COC1=C(OC)C(=O)C(Cc2ccc(CCC(=O)Nc3ccc(OC)cc3)cc2)=C(C)C1=O [Prod. Ex. 94] | 1 |
| COC1=C(OC)C(=O)C(Cc2ccc(CCC(=O)N3CCC(C(C)=O)(c4ccccc4)CC3)cc2)=C(C)C1=O [Prod. Ex. 168] | 9 |
| COC1=C(OC)C(=O)C(Cc2ccc(CCCC(=O)NC(C)C)cc2)=C(C)C1=O [Prod. Ex. 30, N-[4-[4-(5,6-Dimethoxy-3-methyl-1,4-benzoquinon-2-ylmethyl)phenyl]butanoyl]isopropylamine] | 14 |
| COC1=C(OC)C(=O)C(Cc2cccc(CCC(=O)N3CCCCC3)c2)=C(C)C1=O [Prod. Ex. 32, N-[3-[3-(5,6-Dimethoxy-3-methyl-1,4-benzoquinon-2-ylmethyl)phenyl]propionyl]piperidine] | 24 |
| COC1=C(OC)C(=O)C(Cc2ccc(CCC(=O)N3CCC(C(N)=O)CC3)cc2)=C(C)C1=O [Prod. Ex. 79] | 13 |
| COC1=C(OC)C(=O)C(Cc2ccccc2CCC(=O)N2CCCCC2)=C(C)C1=O [Prod. Ex. 70, N-[3-[2-(5,6-Dimethoxy-3-methyl-1,4-benzoquinon-2-ylmethyl)phenyl]propionyl]piperidine] | 44 |
| COC1=C(OC)C(=O)C(Cc2ccc(CCC(=O)NC3CCCCCC3)cc2)=C(C)C1=O [Prod. Ex. 136] | 18 |
| COC1=C(OC)C(=O)C(Cc2ccc(CCC(=O)N3CCC(C)CC3)cc2)=C(C)C1=O [Prod. Ex. 81] | 5 |
| COC1=C(OC)C(=O)C(Cc2cccc(C(=O)NC(C)C)c2)=C(C)C1=O [Prod. Ex. 42, N-[3-(5,6-Dimethoxy-3-methyl-1,4-benzoquinon-2-ylmethyl)benzoyl]isopropylamine] | 22 |
| COC1=C(OC)C(=O)C(Cc2ccc(C(=O)NC(C)C)cc2)=C(C)C1=O [Prod. Ex. 23, N-[4-(5,6-Dimethoxy-3-methyl-1,4-benzoquinon-2-ylmethyl)benzoyl]isopropylamine] | 42 |
| COC1=C(OC)C(=O)C(Cc2ccc(CCC(=O)N3CCC(O)(c4ccccc4)CC3)cc2)=C(C)C1=O [Prod. Ex. 151] | 20 |
| COC1=C(OC)C(=O)C(Cc2ccc(CC(=O)NC(C)C)cc2)=C(C)C1=O [Prod. Ex. 56, N-[4-(5,6-Dimethoxy-3-methyl-1,4-benzoquinon-2-ylmethyl)phenylacetyl]isopropylamine] | 5 |
| CC1=C(C)C(=O)C(Cc2cccc(CCC(=O)N3CCOCC3)c2)=C(C)C1=O [Prod. Ex. 51, N-[3-[3-(3,5,6-Trimethyl-1,4-benzoquinon-2-ylmethyl)phenyl]propionyl]morpholine] | 18 |
| COC1=C(OC)C(=O)C(Cc2ccc(CCCC(=O)N3CCCCC3)cc2)=C(C)C1=O [Prod. Ex. 29, N-[4-[4-(5,6-Dimethoxy-3-methyl-1,4-benzoquinon-2-ylmethyl)phenyl]butanoyl]piperidine] | 13 |
| COC1=C(OC)C(=O)C(Cc2ccc(CCCC(=O)N3CCOCC3)cc2)=C(C)C1=O [Prod. Ex. 27, N-[4-[4-(5,6-Dimethoxy-3-methyl-1,4-benzoquinon-2-ylmethyl)phenyl]butanoyl]morpholine] | 15 |
| COC1=C(OC)C(=O)C(Cc2ccc(CCCC(=O)N3CCSCC3)cc2)=C(C)C1=O [Prod. Ex. 28, N-[4-[4-(5,6-Dimethoxy-3-methyl-1,4-benzoquinon-2-ylmethyl)phenyl]butanoyl]thiomorpholine] | 14 |
| COC1=C(OC)C(=O)C(Cc2ccc(CCC(=O)N3CCN(c4ccccc4)CC3)cc2)=C(C)C1=O [Prod. Ex. 148] | 25 |
| COC1=C(OC)C(=O)C(Cc2ccc(CCC(=O)N3CCC[C@H]3C(N)=O)cc2)=C(C)C1=O [Prod. Ex. 106] | 7 |

Same assay, conditions: Homo sapiens; A549/NF-κBLuc, TNF-α (500 ng/ml) for 4 hours, luciferase activity; read-out: IC50 (μM) TNF stimulation

| SMILES | IC50 [µM] |
| --- | --- |
| Cc1csc2ncnc(NC3Cc4ccccc4C3)c12 [Prod. Ex. 190, 4-(2-Indanylamino)-5-methylthieno[2,3-d]pyrimidine] | 1.1 |
| CC(C)c1csc2ncnc(NC3Cc4ccccc4C3)c12 [Prod. Ex. 211, 4-(2-Indanylamino)-5-isopropylthieno[2,3-d]pyrimidine] | 0.13 |
| COC1=C(OC)C(=O)C(Cc2ccc(CCC(=O)NC(C)C)cc2)=C(C)C1=O [Prod. Ex. 9, N-[3-[4-(5,6-Dimethoxy-3-methyl-1,4-benzoquinon-2-ylmethyl)phenyl]propionyl]isopropylamine] | 4 |
| Cc1csc2ncnc(NC3Cc4ccc(C(=O)NCc5ccccc5)cc4C3)c12 (centres unmarked) [Prod. Ex. 220, N-Benzyl-2-(5-methylthieno[2,3-d]pyrimidine-4-yl)amino-5-indan Carboxamide] | 0.12 |
